This is an account of results in USRE39420E1, “1,2-Diphenylpyrrole derivatives, their preparation and their therapeutic uses” (Sankyo Company, Limited, priority 1996, dated 2006).

Each structure is given as a SMILES string.

Series [1] has as its system yeast-inflamed pain in rats. Nature of the series: Analgesic effect on yeast-inflamed pain in rats (Randall-Selitto method). The following applies: Rattus norvegicus, oral, pain threshold 0.5, 1 and 2 hours after administration, read-out: Efficacy Rate (No. of animals in which drug was effective/No. of animals used in test) (converted). In kind it is in vivo, Wistar-Imamichi rats. On the procedure: The compound was suspended in 0.5%tragacanth and administered orally at a volume of 5 ml/kg. The control group was administered with 0.5% tragacanth only as a vehicle.
Wistar-Imamichi rats (males, 5 week old, body weights: 80-100 g) were used in this test.
The test was conducted in accordance with the method of Winter and Flataker [J. Pharmacol. Exp. Ther. 150, 165-171, (1965)], which is a modification of the original method of Randall and Selitto [Arch. Int. Pharmacodyn. Ther. 111, 405-419, (1957)]. The rats were fasted for 16 hours prior to use. Inflammation was induced by subcutaneous injection of 0.1 ml of a suspension of 20% beer yeast (Sigma) into the right hind footpad of the animal. After 4.5 hours, increasing pressure was applied to the inflamed footpad at a constant speed using an Analgesy meter (Trade mark) (Ugo-Basile Co.).
First the average of pain threshold values at each time point (0.5, 1, and 2 hr) was calculated in a control group. If a pain threshold value exceeded 2 times the control average value at the same time point even once in the drug-treated groups, then the animal was considered to indicate efficacy. Efficacy rates of the drug were estimated by the evaluation method of Blake [J. Pharm. Pharm. 19, 367-373, (1967)].

Series [2] has as its system gastric mucosa. Put plainly: Irritative effect on gastric mucosa. In kind it is in vivo, Wistar rats. Particulars: oral; dose producing 50% incidence of gastric ulcers, 3.5 hours after dosing. The protocol:
Experiments were performed according to the method described by Jahn and Adrian [Arzneim.-Forsch. 19, 36, (1969)]. Male Wistar rats weighing approximately 120 g were fasted for 16 hours before the experiment. The drugs were administered orally to rats as described in Experiment 3. Three and the half hours after dosing, the animals were killed under ether-anesthesia and the stomachs were placed into 1% of formalin. The stomach was opened by cutting along the greater curvature and the number and length of lesions were counted under a microscope (6.3×10). The ulcerogenicity in each animal was assessed according to Hitchens et. al. [Pharmacologist 9, 242, (1967)]. Incidence was determined as the rate of rats with 4 or more ulcers of more than 0.5 mm length, and UD50's (doses producing 50% incidence) were calculated from the incidence and the dose by probit (=probability unit) method.

Series [3] has as its system Carrageenan-induced Paw Edema in rats. Nature of the series: Carrageenan-induced paw edema test. In kind it is in vivo, Wistar-Imamichi rats. The following applies: Rattus norvegicus, oral, 3 hours after carrageenan, read-out: Inhibition Rate (%). The protocol:
The same test compounds were subjected to the test as those in the Randall-Selitto test of Experiment 3. Wistar-Imamichi rats (males, 6 week old, body weights: 110-120 g) were used in this test.
The method of Winter, et al. [Proc. Soc. Exp. Biol. Med. 111, 544-547, (1962)] was slightly modified to perform the test [Sankyo Annual Research Report 39, 77-111, (1989)]. The rats were fasted for 16 hours prior to use. Inflammatory edema was induced by the subcutaneous injection of 0.05 ml of a 1% carrageenan (Viscarin 402) solution into the right hind paw of the animal. The test compounds were administered orally 30 minutes before injection of carrageenan. The volume of the right hind foot was measured with a Plethysmometer (Trade mark) (Ugo-Basile Co.) just before administration of the test compound and 3 hours after injection of carrageenan to determine the edema intensity [(right foot volume after 3 hours/right foot volume before injection)-1].
On the technique in general: In the carrageenan paw model, swelling and tenderness develop within hours.

With `CSc1ccc(-c2cc(C)cn2-c2ccc(S(N)(=O)=O)cc2)cc1` [Example 66, 4-Methyl-2-(4-methylthiophenyl)-1-(4-sulfamoylphenyl)pyrrole], in series [1], the responders at 12.5 mg/kg is 100%. For the same compound, in series [2], the “UD50” value is given as >100 mg/kg.
Turning to `COc1ccc(-n2c(Cl)ccc2-c2ccc(S(N)(=O)=O)cc2)cc1` [Example 97, 5-Chloro-1-(4-methoxyphenyl)-2-(4-sulfamoylphenyl)pyrrole], in series [1], the responders at 12.5 mg/kg was 100%. Besides, the inhibition in vivo at 50 mg/kg in series [3] is 63%.
In the case of `Cc1cc(-c2ccc(Cl)c(Cl)c2)n(-c2ccc(S(N)(=O)=O)cc2)c1` [Example 70, 2-(3,4-Dichlorophenyl)-4-methyl-1-(4-sulfamoylphenyl)pyrrole], in series [2], the “UD50” value is recorded as >100 mg/kg.
`COc1ccc(-c2cc(C)cn2-c2ccc(S(N)(=O)=O)cc2)cc1F` [Example 71, 2-(3-Fluoro-4-methoxylphenyl)-4-methyl-1-(4-sulfamoylphenyl)pyrrole]: the responders at 12.5 mg/kg in series [1] was 100%. Further, in series [2], the “UD50” value is >100 mg/kg.
On to `COc1ccc(-c2cccn2-c2ccc(S(N)(=O)=O)cc2)cc1` [Example 76, 2-(4-Methoxyphenyl)-1-(4-sulfamoylphenyl)pyrrole], for which the “UD50” value in series [2] is on record as >100 mg/kg. The inhibition in vivo at 50 mg/kg in series [3] stood at 56%.
Turning to `COc1ccc(-n2c(-c3ccc(S(N)(=O)=O)cc3)cc(C)c2Cl)cc1` [Example 99, 5-Chloro-1-(4-methoxyphenyl)-4-methyl-2-(4-sulfamoylphenyl)pyrrole], the inhibition in vivo at 50 mg/kg in series [3] is 57%.
Consider `Cc1ccc(-c2c(C)ccn2-c2ccc(S(N)(=O)=O)cc2)cc1` [Example 17, 3-Methyl-2-(4-methylphenyl)-1-(4-sulfamoylphenyl) pyrrole], for which the inhibition in vivo at 50 mg/kg in series [3] came to 67%.
Turning to `COc1ccc(-n2c(Br)ccc2-c2ccc(S(N)(=O)=O)cc2)cc1` [Example 98, 5-Bromo-1-(4-methoxyphenyl)-2-(4-sulfamoylphenyl)pyrrole], the inhibition in vivo at 50 mg/kg in series [3] came out at 55%.
Same read-out and setting: the figure for `Cc1cc(-c2ccc(S(N)(=O)=O)cc2)n(-c2ccc([S+](C)[O-])cc2)c1` (centres unmarked) [Example 96, 4-Methyl-1-(4-methylsulfinylphenyl)-2-(4-sulfamoylphenyl)pyrrole] is 60%.
On the same count and under the same terms, as for `CCc1cc(-c2ccc(OC)cc2)n(-c2ccc(S(N)(=O)=O)cc2)c1` [Example 64, 4-Ethyl-2-(4-methoxyphenyl)-1-(4-sulfamoylphenyl) pyrrole], the figure is 60%.
For the compound `Cc1cc(-c2ccccc2)n(-c2ccc(S(N)(=O)=O)cc2)c1` [Example 77, 4-Methyl-2-phenyl-1-(4-sulfamoylphenyl)pyrrole], the “UD50” value in series [2] is reported as >100 mg/kg.
As for `CSc1ccc(-c2c(C)ccn2-c2ccc(S(N)(=O)=O)cc2)cc1` [Example 88, 3-Methyl-2-(4-methylthiophenyl)-1-(4-sulfamoylphenyl)pyrrole], the responders at 12.5 mg/kg in series [1] is 100%. Besides, the inhibition in vivo at 50 mg/kg in series [3] came out at 61%.
In the case of `Cc1cc(-c2ccc(S(N)(=O)=O)cc2)n(-c2ccc(F)cc2F)c1` [Example 75, 1-(2,4-Difluorophenyl)-4-methyl-2-(4-sulfamoylphenyl)pyrrole], the inhibition in vivo at 50 mg/kg in series [3] is 57%.
For the compound `CCSc1ccc(-n2cc(C)cc2-c2ccc(S(N)(=O)=O)cc2)cc1` [Example 85, 1-(4-Ethylthiophenyl)-4-methyl-2-(4-sulfamoylphenyl)pyrrole], in series [1], the responders at 12.5 mg/kg is 100%. Also, the inhibition in vivo at 50 mg/kg in series [3] came out at 73%.
Regarding `CCOc1ccc(-n2c(Cl)ccc2-c2ccc(S(N)(=O)=O)cc2)cc1` [Example 100, 5-Chloro-1-(4-ethoxyphenyl)-2-(4-sulfamoylphenyl) pyrrole], in series [1], the responders at 12.5 mg/kg is 100%. Besides, in series [3], the inhibition in vivo at 50 mg/kg came to 57%.
In the same order, the values of `Cc1ccc(-c2cc(C)cn2-c2ccc(S(N)(=O)=O)cc2)cc1` [Example 18, 4-Methyl-2-(4-methylphenyl)-1-(4-sulfamoylphenyl) pyrrole] are 100% and 53%.
Consider `COc1ccc(-c2cc(C)cn2-c2ccc(S(=O)(=O)NC(C)=O)cc2)cc1` [Example 82, 1-(4-Acetylaminosulfonylphenyl)-2-(4-methoxyphenyl)-4-methylpyrrole], for which the responders at 12.5 mg/kg in series [1] is 100%. For the same compound, in series [2], the “UD50” value is >100 mg/kg. Further, the inhibition in vivo at 50 mg/kg in series [3] is 78%.
In the case of `Cc1cc(C)cc(-c2cc(C)cn2-c2ccc(S(N)(=O)=O)cc2)c1` [Example 87, 4-Methyl-2-(3,5-dimethylphenyl)-1-(4-sulfamoylphenyl)pyrrole], the responders at 12.5 mg/kg in series [1] was 100%.
With `CC(=O)NS(=O)(=O)c1ccc(-n2cc(C)cc2-c2ccc(C)c(C)c2)cc1` [Example 83, 1-(4-Acetylaminosulfonylphenyl)-2-(3,4-dimethylphenyl)-4-methylpyrrole], the responders at 12.5 mg/kg in series [1] was 100%. For the same compound, the inhibition in vivo at 50 mg/kg in series [3] worked out at 70%.
`Cc1cc(-c2ccc(S(N)(=O)=O)cc2)n(-c2ccc(C)c(C)c2)c1` [Example 86, 4-Methyl-1-(3,4-dimethylphenyl)-2-(4-sulfamoylphenyl)pyrrole]: the responders at 12.5 mg/kg in series [1] was 100%. The inhibition in vivo at 50 mg/kg in series [3] came to 64%.
Turning to `COc1ccc(-c2cc(C)cn2-c2ccc(S(N)(=O)=O)cc2)cc1Cl` [Example 79, 2-(3-Chloro-4-methoxyphenyl)-4-methyl-1-(4-sulfamoylphenyl)pyrrole], the responders at 12.5 mg/kg in series [1] is 100%. Further, in series [2], the “UD50” value was >100 mg/kg.
As for `CC(=O)Sc1ccc(-n2cc(C)cc2-c2ccc(S(N)(=O)=O)cc2)cc1` [Example 130, 1-(4-Acetylthiophenyl)-4-methyl-2-(4-sulfamoylphenyl)pyrrole], in series [1], the responders at 12.5 mg/kg was 20%. Further, the inhibition in vivo at 50 mg/kg in series [3] is 73%.
As for `CSc1ccc(-n2c(Cl)ccc2-c2ccc(S(N)(=O)=O)cc2)cc1` [Example 101, 5-Chloro-1-(4-methylthiophenyl)-2-(4-sulfamoylphenyl)pyrrole], in series [1], the responders at 12.5 mg/kg was 100%.
For the compound `NS(=O)(=O)c1ccc(-c2cccn2-c2ccc(F)cc2)cc1` [Example 19, 1-(4-Fluorophenyl)-2-(4-sulfamoylphenyl)pyrrole], in series [1], the responders at 12.5 mg/kg was 100%. For the same compound, in series [3], the inhibition in vivo at 50 mg/kg was determined as 65%.
For `COc1ccc(-c2cc(C)cn2-c2ccc(S(N)(=O)=O)cc2)cc1C` [Example 69, 4-Methyl-2-(4-methoxy-3-methylphenyl)-1-(4-sulfamoylphenyl)pyrrole], in series [1], the responders at 12.5 mg/kg is 100%. Further, in series [2], the “UD50” value is recorded as >100 mg/kg. Besides, the inhibition in vivo at 50 mg/kg in series [3] is 55%.
Turning to `Cc1cc(-c2ccc(S(N)(=O)=O)cc2)n(-c2ccc(S)cc2)c1` [Example 129, 1-(4-Mercaptophenyl)-4-methyl-2-(4-sulfamoylphenyl)pyrrole], the responders at 12.5 mg/kg in series [1] was 100%. For the same compound, the inhibition in vivo at 50 mg/kg in series [3] is 62%.
